Data set [1] can be described thus: Stability of clindamycin hydrochloride mixed with BP-CB or BPO, stored in vials at 30° C., HPLC peak area. The data set is classed as physicochemical. The note with it: after 216 h at 30° C. Here is the method: The stability of the benzoyl peroxide (BP-CB) formulation of the present invention is compared with benzoyl peroxide (BPO) in non-invention drug formulations. In one study, clindamycin hydrochloride is used as the API. Clindamycin hydrochloride and BP-CB or BPO are placed in vials and stored at 30° C. The vials are analyzed by HPLC and the area from the clindamycin hydrochloride peak is monitored. […] These values are in comparison to the area from the T0 results. BPO Study—Into clear one dram vials is placed hydrous benzoyl peroxide (26 mg, 75.0% by wt) and clindamycin hydrochloride (20 mg). The contents are mixed thoroughly. Then the vials are stored at 30° C. BP-CB Study—Into clear one dram vials is placed BP-CB (30 mg, 65% BPO by wt) and clindamycin hydrochloride (20 mg). The contents are mixed thoroughly then the vials are stored at 30° C. Analysis—At certain time points, the vials are analyzed by HPLC. Prior to analysis, a mixture of methanol and acetonitrile (10 mL total, 1:1 by volume) is added to dissolve the contents of the vial. The solution is used for HPLC analysis. For T0, a vial is removed and analyzed before the samples are heated to 30° C. • To prepare 1 L solution, transfer 1000 mL DI water into a suitable reservoir. Add 6.81 g of KH2PO4, and then adjust pH to 3.1 with H3PO4. Mix well. Degas solution thoroughly before use. [table]

Data set [2] can be described thus: Stability of tazarotene with BP-CB or BPO in polyacrylic acid gel, stored at 30° C., HPLC peak area. The data set is classed as physicochemical. To be noted: after 834 h at 30° C.; with tazarotene in polyacrylic acid (PAA) gel. Here is the method: These stability studies are set up to examine BP-CB/BPO with various APIs in aqueous gel formulations. In one study, tazarotene is used as the API. Tazarotene and BP-CB or BPO are placed into a polyacrylic acid (PAA) gel in vials and stored at 30° C. The vials are analyzed by HPLC and the area from the tazarotene peak is monitored. […] These values are compared on the area from the To results.
BPO Study—Polyacrylic acid gel is prepared by stirring polyacrylic acid (2.5 g) in deionized water (100 mL) at 50° C. for 2 h. The gel is allowed to cool to ambient temperature. The gel (500 mg) is weighed out into each of the 4-dram vials. Into the same vials is placed hydrous benzoyl peroxide (390 mg, 74.6% by wt) and tazarotene (375 mg). The contents are mixed thoroughly then the vials are stored at 30° C.
BP-CB Study—Polyacrylic acid gel is prepared by stirring polyacrylic acid (2.5 g) in deionized water (100 mL) at 50° C. for 2 h. The gel is allowed to cool to ambient temperature. The gel (500 mg) is weighed out into each of the 4-dram vials. Into the same vials is placed BP-CB (447 mg, 65% BPO by wt) and tazarotene (375 mg). The contents are mixed thoroughly then the vials are stored at 30° C.
Analysis—At certain time points, the vials are analyzed by HPLC. […] For To, a vial is removed and analyzed before the samples are heated to 30° C. […]

For data set [3] the following is noted: cited from earlier work.

A word on the pKa: it is the pH at which an ionisable group is half protonated.

Molecules are shown by their SMILES.

For `O=C(OOC(=O)c1ccccc1)c1ccccc1` [BPO, benzoyl peroxide], the “decrease of HPLC area of the clindamycin hydrochloride peak in comparison to T0” value in data set [1] was found to be 87.0%. In addition, in data set [2], the “decrease of HPLC area of the tazarotene peak compared to T0” value was 88%.
Consider `CC1=C(/C=C/C(C)=C/C=C/C(C)=C/C(=O)O)C(C)(C)CCC1` [tretinoin], for which, in data set [3], the pKa is 3.8.

Source of the values: patent publication US20120064135A1, “Benzoyl Peroxide Composition, Methods for Making Same, and Pharmaceutical or Cosmetic Formulations Comprising Same, and Uses Thereof” (Norac Pharma, priority 2010, published 2012).
